According to patent US10442813B2, “Polymorphs of rucaparib camsylate and methods of making same” (RK Pharma Solutions LLC, priority 2018, dated 2019):
Counter-ions that a name gives are not always drawn. Like-named read-outs stand apart in the source and are kept apart here.

Assay: Solubility of rucaparib camsylate Form beta in USP standard buffers adjusted to different pHs, 37° C.
Assay type: physicochemical
Protocol: The solubility of rucaparib camsylate Form beta was investigated in USP standard buffers adjusted to different pHs. For pH 1.2, the buffer solution included 3.73 g of potassium chloride dissolved in 100 ml of water which was mixed with […] of 0.2 M hydrochloric acid. Water was added to bring the volume to 1000 ml. For pH 4.5, the buffer solution included 2.99 g of sodium acetate dissolved in 100 ml of water which was mixed with 14 ml of 2 N acetic acid. Water was added to bring the volume to 1000 ml. For pH 6.0, the buffer preparation included 6.80 g of potassium phosphate dissolved in 100 ml of water which was mixed with 28 ml of 0.2 M sodium hydroxide. Water was added to bring the volume to 1000 ml. For pH 6.8, the buffer preparation included 6.80 g of potassium phosphate dissolved in 100 ml of water, which was mixed with 112 ml of 0.2 M sodium hydroxide. Water was added to volume of 1000 ml. For pH 8.0, the buffer preparation included 3.09 of boric acid and 3.73 g of potassium chloride dissolved in 100 ml of water, which was mixed with 19.5 ml of 0.2 sodium hydroxide. Water was added to bring volume to 1000 ml.

- solubility (USP buffer pH 8.0, 37° C.): Very slightly soluble
- solubility (USP buffer pH 8.0, 37° C., listed as rucaparib camsylate Form beta): slightly soluble
- solubility (USP standard buffer pH 1.2, simulated gastric fluid, thermodynamic from solid, USP buffer pH 1.2, 37° C., read-out: Solubility): < 100 µg/mL
- solubility (USP standard buffer pH 4.5, aqueous buffer, thermodynamic from solid, USP buffer pH 4.5, 37° C., read-out: Solubility): < 100 µg/mL
- solubility (USP standard buffer pH 6.0, aqueous buffer, thermodynamic from solid, USP buffer pH 6.0, 37° C., read-out: Solubility): < 100 µg/mL
- solubility (USP standard buffer pH 6.8, aqueous buffer, thermodynamic from solid, USP buffer pH 6.8, 37° C., read-out: Solubility): < 100 µg/mL
- solubility (most pH values (all tested except pH 8)): practically insoluble
- solubility (thermodynamic from solid, Water, 37° C., read-out: Solubility): < 100 µg/mL
Compound: CNCc1ccc(-c2[nH]c3cc(F)cc4c3c2CCNC4=O)cc1 [Rucaparib Form beta, 8-fluoro-2-{4-[(methylamino)methyl]phenyl}-1,3,4,5-tetrahydro-6H-azepino[5,4,3-cd]indol-6-one ((1S,4R)-7,7dimethyl-2-oxobicyclo[2.2.1]hept-1-yl)methanesulfonic acid salt]
